We go through 24 compounds from patent US20160193216A1 (Nimbus Iris, Inc., priority 2012, published 2016).

Counter-ions that a name gives are not always drawn. Bounds are passed on as bounds.

This assay addresses T1, IRAK4 (Homo sapiens, UniProt Q9NWZ3).
T1 sequence (Q9NWZ3 1-460): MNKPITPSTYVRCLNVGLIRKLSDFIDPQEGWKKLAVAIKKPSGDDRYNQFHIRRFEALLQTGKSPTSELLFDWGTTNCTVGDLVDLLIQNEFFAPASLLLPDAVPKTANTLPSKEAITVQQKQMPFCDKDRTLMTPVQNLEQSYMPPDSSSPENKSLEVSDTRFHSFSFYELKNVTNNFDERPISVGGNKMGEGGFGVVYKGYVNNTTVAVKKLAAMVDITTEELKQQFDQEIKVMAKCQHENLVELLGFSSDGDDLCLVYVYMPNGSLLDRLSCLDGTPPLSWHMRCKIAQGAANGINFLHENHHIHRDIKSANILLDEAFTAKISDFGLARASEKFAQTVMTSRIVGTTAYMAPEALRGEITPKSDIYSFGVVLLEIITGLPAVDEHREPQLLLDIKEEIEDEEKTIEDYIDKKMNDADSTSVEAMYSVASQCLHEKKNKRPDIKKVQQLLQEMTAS
Briefly: IRAK-4 activity inhibition assay (Caliper). Type of assay: biochemical. To be noted: 37 μM ATP, 3.5 nM IRAK4. The protocol: A 1× kinase base buffer was prepared from 50 mM HEPES, pH 7.5 and 0.0015% Brij-35. A stop buffer was prepared from 100 mM HEPES, pH 7.5, 0.015% Brij-35, 0.2% Coating Reagent #3, and 50 mM EDTA.
Test compound was diluted to 50× of the final desired highest inhibitor concentration in reaction by 100% DMSO. 100 μl of this compound dilution was transferred to a well in a 96-well plate.
Test compound was serially diluted by transferring 30 μl to 60 μl of 100% DMSO in the next well and so forth for a total of 10 concentrations. 100 μl of 100% DMSO was added to two empty wells for no compound control and no enzyme control in the same 96-well plate.
A new 96-well plate was marked as intermediate plate. 5 μl of compound serial dilution was transferred from source plate to the corresponding wells of the intermediate plate. 45 μl of 1× kinase base buffer (KB buffer) was added to each well of the intermediate plate. The intermediate plate was placed for 10 min on a shaker.
5 μl of each well was transferred from the 96-well intermediate plate to a 384-well plate in duplicates. […] A2 of the 96-well plate is transferred to A3 and A4 of the 384-well plate, and so on.
IRAK4 and DTT in 1× kinase base buffer was added.
Assay plate already contained 5 μl of compound in 10% DMSO. Added 10 μl of 2.5× enzyme solution to each well of the 384-well assay plate, except no enzyme control wells. […] Added 10 μl of 1× kinase base buffer to no enzyme control wells in the assay plate. Incubated at room temperature for 10 min.
Added 10 μl of 2.5× peptide solution to each well of the 384-well assay plate. […] Incubated at 28° C. for 40 minutes. Added 25 μl of stop buffer to stop reaction. Collected data on Caliper.
Copied conversion % data from Caliper program. Converted conversion % values to percent inhibition values. Percent inhibition=(max−conversion %)/(max−min)*100, where “max” means the conversion % of DMSO control and “min” means the conversion % of no enzyme control.
The compound numbers correspond to the compound numbers in Table 1. […] “NA” stands for “not assayed.”
For the compound `CN[C@H]1CC[C@H](Oc2ncnc3sc4c(c23)[C@@H](C[C@@H](O)C(N)=O)CC4)CC1` [Compound I-140, (2R)-2-hydroxy-3-[(3R)-12-[[4-(methylamino)cyclohexyl]oxy]-7-thia-9,11-diazatricyclo[6.4.0.0[2,6]]dodeca-1(8),2(6),9,11-tetraen-3-yl]propanamide], the IC50 is < 5 µM.

On to `CC[C@]1(N(C)C)CC[C@H](Oc2ncnc3sc4c(c23)[C@@H](C[C@@H](C)O)CC4)CC1` [Compound I-102, (2R)-1-[(3R)-12-[[4-(dimethylamino)-4-ethylcyclohexyl]oxy]-7-thia-9,11-diazatricyclo[6.4.0.0[2,6]]dodeca-1(12),2(6),8,10-tetraen-3-yl]propan-2-ol], for which the IC50 was < 5 µM.

Consider `CN(C)[C@H]1CC[C@H](Oc2ncnc3sc4c(c23)[C@@H](C[C@H](O)C2CCCO2)CC4)CC1` (stereo partly drawn) [Compound I-89, (1S)-2-((R)-4-(((1r,4R)-4-(dimethylamino)cyclohexyl)oxy)-6,7-dihydro-5H-cyclopenta[4,5]thieno[2,3-d]pyrimidin-5-yl)-1-(tetrahydrofuran-2-yl)ethanol], for which the 50% inhibitory concentration (IC50) was < 5 µM.

`CN(CC(=O)N1CCCC1)[C@H]1CC[C@H](Nc2ncnc3sc4c(c23)[C@@H](CCC(N)=O)CC4)CC1` [Compound I-127, 3-((S)-4-(((1r,4S)-4-(methyl(2-oxo-2-(pyrrolidin-1-yl)ethyl)amino)cyclohexyl)amino)-6,7-dihydro-5H-cyclopenta[4,5]thieno[2,3-d]pyrimidin-5-yl)propanamide] gave an IC50 of 5 to 20 µM.

Take `CCOC(=O)C1CCc2sc3ncnc(N[C@H]4CC[C@H](N(C)C)CC4)c3c21` (stereo partly drawn) [Compound I-1]: the IC50 fell in the range of 5 to 20 µM.

In the case of `NC(=O)[C@@H](O)C[C@H]1CCc2sc3ncnc(O[C@H]4CC[C@H](N5CCCC5)CC4)c3c21` [Compound I-226, (S)-2-hydroxy-3-((R)-4-(((1r,4R)-4-(pyrrolidin-1-yl)cyclohexyl)oxy)-6,7-dihydro-5H-cyclopenta[4,5]thieno[2,3-d]pyrimidin-5-yl)propanamide], the IC50 is < 5 µM.

Take `CC[S@@+]([O-])C[C@H]1CCc2sc3ncnc(O[C@H]4CC[C@H](N(C)C)CC4)c3c21` (single isomer, unassigned) [Compound I-46]: the IC50 was < 5 µM.

As to `COCCN[C@H]1CC[C@H](Oc2ncnc3sc4c(c23)[C@@H](CC(N)=O)CC4)CC1` [Compound I-133, 2-[(3R)-12-([4-[(2-methoxyethyl)amino]cyclohexyl]oxy)-7-thia-9,11-diazatricyclo[6.4.0.0[2,6]]dodeca-1(12),2(6),8,10-tetraen-3-yl]acetamide], the IC50 is < 5 µM.

In the case of `NC(=O)C1CCc2sc3ncnc(N[C@H]4CC[C@H](N5CCOCC5)CC4)c3c2C1` (stereo partly drawn) [Compound I-203, 3-[[4-(morpholin-4-yl)cyclohexyl]amino]-8-thia-4,6-diazatricyclo[7.4.0.0[2,7]]trideca-1(9),2,4,6-tetraene-12-carboxamide], the half-maximal inhibitory concentration (IC50) is < 5 µM.

With `CC[C@H](O)C[C@H]1CCc2sc3ncnc(O[C@H]4CC[C@H](N(C)C)CC4)c3c21` [Compound I-107, (2S)-1-[(3R)-12-[[4-(dimethylamino)cyclohexyl]oxy]-7-thia-9,11-diazatricyclo[6.4.0.0[2,6]]dodeca-1(8),2(6),9,11-tetraen-3-yl]butan-2-ol], the IC50 was < 5 µM.

With `CN[C@H]1CC[C@H](Oc2ncnc3sc4c(c23)[C@@H](C[C@@H](C#N)OC)CC4)CC1` [Compound I-80, (2S)-2-methoxy-3-[(3R)-12-[[4-(methylamino)cyclohexyl]oxy]-7-thia-9,11-diazatricyclo[6.4.0.0[2,6]]dodeca-1(8),2(6),9,11-tetraen-3-yl]propanenitrile], the IC50 is < 5 µM.

Regarding `CN(C)[C@H]1CC[C@H](Nc2ncnc3sc4c(c23)C(CO)CC4)CC1` (stereo partly drawn) [Compound I-3], the IC50 is < 5 µM.

Turning to `COC(=O)CC1CCc2sc3ncnc(N[C@H]4CC[C@H](N(C)C)CC4)c3c21` (stereo partly drawn) [Compound I-11], the half-inhibitory concentration (IC50) lay within 5 to 20 µM.

`CN(C)[C@H]1CC[C@H](Oc2ncnc3sc4c(c23)C[C@@H](CCO)CC4)CC1` [Compound I-111, 2-[(12S)-3-[[4-(dimethylamino)cyclohexyl]oxy]-8-thia-4,6-diazatricyclo[7.4.0.0[2,7]]trideca-1(9),2(7),3,5-tetraen-12-yl]ethan-1-ol formate]: the IC50 is < 5 µM.

In turn, `NC(=O)C[C@H]1CCc2sc3ncnc(O[C@H]4CC[C@H](N5CCNC(=O)C5)CC4)c3c21` [Compound I-158, 2-((R)-4-(((1r,4R)-4-(3-oxopiperazin-1-yl)cyclohexyl)oxy)-6,7-dihydro-5H-cyclopenta[4,5]thieno[2,3-d]pyrimidin-5-yl)acetamide] returned an IC50 of 20 to 50 µM.

With `CC[C@]1(N(C)C)CC[C@H](Oc2ncnc3sc4c(c23)[C@@H](CCO)CC4)CC1` [Compound I-91, 2-((R)-4-(((1r,4R)-4-(dimethylamino)-4-ethylcyclohexyl)oxy)-6,7-dihydro-5H-cyclopenta[4,5]thieno[2,3-d]pyrimidin-5-yl)ethanol], the IC50 is < 5 µM.

As for `CCCOC(=O)N1CCc2sc3ncnc(O[C@H]4CC[C@H](N(C)C)CC4)c3c2C1` [Compound I-184, propyl 3-[[4-(dimethylamino)cyclohexyl]oxy]-8-thia-4,6, 12-triazatricyclo[7.4.0.0[2,7]]trideca-1(9),2(7),3,5-tetraene-12-carboxylate], the IC50 is < 5 µM.

Take `OC[C@H]1CCc2sc3ncnc(O[C@H]4CC[C@H](N5CCOCC5)CC4)c3c2C1` [Compound I-216, [(12S)-3-[[4-(morpholin-4-yl)cyclohexyl]oxy]-8-thia-4,6-diazatricyclo[7.4.0.0[2,7]]trideca-1(9),2(7),3,5-tetraen-12-yl]methanol]: the IC50 was < 5 µM.

With `COCCC1CCc2sc3ncnc(O[C@H]4CC[C@H](N(C)C)CC4)c3c21` (stereo partly drawn) [Compound I-32, 4-[[3-(2-methoxyethyl)-7-thia-9,11-diazatricyclo[6.4.0.0[2,6]]dodeca-1(8),2(6),9,11-tetraen-12-yl]oxy]-N,N-dimethylcyclohexan-1-amine], the IC50 was < 5 µM.

With `C#CCOC[C@H]1CCc2sc3ncnc(O[C@H]4CC[C@H](N(C)C)CC4)c3c21` [Compound I-49, N,N-dimethyl-4-[[(3S)-3-[(prop-2-yn-1-yloxy)methyl]-7-thia-9,11-diazatricyclo[6.4.0.0[2,6]]dodeca-1(8),2(6),9,11-tetraen-12-yl]oxy]cyclohexan-1-amine], the IC50 was < 5 µM.

Turning to `CC[C@H](C[C@H]1CCc2sc3ncnc(N[C@H]4CC[C@H](N(C)C)CC4)c3c21)OC` [Compound I-147, (1r,4R)-N1-((R)-5-((R)-2-methoxybutyl)-6,7-dihydro-5H-cyclopenta[4,5]thieno[2,3-d]pyrimidin-4-yl)-N4,N4-dimethylcyclohexane-1,4-diamine], the IC50 is < 5 µM.

`CN(C)[C@H]1CC[C@H](Nc2ncnc3sc4c(c23)C(C(=O)NCCCO)CC4)CC1` (stereo partly drawn) [Compound I-28, 12-[[4-(dimethylamino)cyclohexyl]amino]-N-(3-hydroxypropyl)-7-thia-9,11-diazatricyclo[6.4.0.0̂[2,6]]dodeca-1(12),2(6),8,10-tetraene-3-carboxamide] had an IC50 of 20 to 50 µM.

The compound `CN(C)[C@H]1CC[C@H](Oc2ncnc3sc4c(c23)C(CC#N)CC4)CC1` (stereo partly drawn) [Compound I-22, 2-(12-[[4-(dimethylamino)cyclohexyl]oxy]-7-thia-9,11-diazatricyclo[6.4.0.0[2,6]]dodeca-1(8),2(6),9,11-tetraen-3-yl)acetonitrile] showed an IC50 of 5 to 20 µM.

`CCNC(=O)C[C@@H]1CCc2sc3ncnc(O[C@H]4CC[C@H](N(C)C)CC4)c3c21` [Compound I-36, 2-[(3S)-12-[[4-(dimethylamino)cyclohexyl]oxy]-7-thia-9,11-diazatricyclo[6.4.0.0[2,6]]dodeca-1(12),2(6),8,10-tetraen-3-yl]-N-ethylacetamide]: the IC50 is > 50 µM.
